Series [1] concerns the target T1, Ephrin type-A receptor 6 (Homo sapiens) (UniProt Q9UF33).
T1 sequence (whole entry): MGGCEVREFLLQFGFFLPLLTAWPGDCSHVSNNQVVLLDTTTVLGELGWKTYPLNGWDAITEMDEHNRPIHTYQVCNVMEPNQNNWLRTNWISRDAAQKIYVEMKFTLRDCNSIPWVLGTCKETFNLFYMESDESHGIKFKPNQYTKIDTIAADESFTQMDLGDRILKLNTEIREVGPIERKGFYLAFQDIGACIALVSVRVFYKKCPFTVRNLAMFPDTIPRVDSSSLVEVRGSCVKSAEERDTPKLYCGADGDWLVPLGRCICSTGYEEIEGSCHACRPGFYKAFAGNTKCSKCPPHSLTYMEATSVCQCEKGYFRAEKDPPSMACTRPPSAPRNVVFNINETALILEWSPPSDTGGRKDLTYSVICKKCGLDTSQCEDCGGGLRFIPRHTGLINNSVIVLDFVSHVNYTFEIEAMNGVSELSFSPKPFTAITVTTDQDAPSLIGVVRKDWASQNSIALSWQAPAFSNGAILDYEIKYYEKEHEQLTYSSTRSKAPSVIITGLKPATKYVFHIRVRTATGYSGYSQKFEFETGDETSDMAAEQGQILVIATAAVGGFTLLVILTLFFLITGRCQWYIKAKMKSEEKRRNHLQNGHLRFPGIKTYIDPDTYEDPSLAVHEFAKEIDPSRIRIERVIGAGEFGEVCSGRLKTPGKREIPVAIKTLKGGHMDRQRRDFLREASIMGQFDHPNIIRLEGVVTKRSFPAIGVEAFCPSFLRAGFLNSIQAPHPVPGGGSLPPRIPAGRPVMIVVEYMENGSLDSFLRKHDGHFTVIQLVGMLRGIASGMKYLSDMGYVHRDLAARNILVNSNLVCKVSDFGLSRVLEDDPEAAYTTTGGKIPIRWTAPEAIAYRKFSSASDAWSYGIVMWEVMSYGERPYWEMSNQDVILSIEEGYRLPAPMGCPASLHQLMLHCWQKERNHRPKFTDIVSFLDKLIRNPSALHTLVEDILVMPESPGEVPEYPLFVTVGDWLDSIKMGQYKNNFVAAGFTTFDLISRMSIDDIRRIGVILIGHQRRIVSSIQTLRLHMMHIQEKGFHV
Kind of series: Inhibition of human EPHA6 at 1 uM using poly[Glu:Tyr] (4:1) as substrate in presence of [gamma-33P]ATP relative to control.

Series [2] is described as follows: Oral bioavailability in Sprague-Dawley rat at 2 mg/kg by LC/MS/MS analysis. The conditions noted are these: in vivo. Format: ADME, organism-based.
Series [3] can be described thus: Volume of distribution at steady state in Beagle dog at 2 mg/kg, po or 1.1 mg/kg, iv by LC/MS/MS analysis. It counts as ADME, organism-based, Canis lupus familiaris. The conditions noted are these: in vivo, read-out: Vdss.
Series [4] in a line: Terminal half life in Beagle dog at 2 mg/kg, po or 1.1 mg/kg, iv by LC/MS/MS analysis. Format: ADME, organism-based, Canis lupus familiaris. The conditions noted are these: in vivo, read-out: beta t1/2 (converted).
The nature of series [5]: Cmax in Sprague-Dawley rat at 200 mg/kg, po using crystalline sample during 7 day dose ranging study by LC/MS/MS analysis. Format: ADME, organism-based. Also noted: dose 200 mg/kg, route oral. The conditions noted are these: in vivo.
Series [6] has as its target T2, Toll-like receptor 9 (Homo sapiens, UniProt Q9NR96).
T2 sequence (Q9NR96 whole entry): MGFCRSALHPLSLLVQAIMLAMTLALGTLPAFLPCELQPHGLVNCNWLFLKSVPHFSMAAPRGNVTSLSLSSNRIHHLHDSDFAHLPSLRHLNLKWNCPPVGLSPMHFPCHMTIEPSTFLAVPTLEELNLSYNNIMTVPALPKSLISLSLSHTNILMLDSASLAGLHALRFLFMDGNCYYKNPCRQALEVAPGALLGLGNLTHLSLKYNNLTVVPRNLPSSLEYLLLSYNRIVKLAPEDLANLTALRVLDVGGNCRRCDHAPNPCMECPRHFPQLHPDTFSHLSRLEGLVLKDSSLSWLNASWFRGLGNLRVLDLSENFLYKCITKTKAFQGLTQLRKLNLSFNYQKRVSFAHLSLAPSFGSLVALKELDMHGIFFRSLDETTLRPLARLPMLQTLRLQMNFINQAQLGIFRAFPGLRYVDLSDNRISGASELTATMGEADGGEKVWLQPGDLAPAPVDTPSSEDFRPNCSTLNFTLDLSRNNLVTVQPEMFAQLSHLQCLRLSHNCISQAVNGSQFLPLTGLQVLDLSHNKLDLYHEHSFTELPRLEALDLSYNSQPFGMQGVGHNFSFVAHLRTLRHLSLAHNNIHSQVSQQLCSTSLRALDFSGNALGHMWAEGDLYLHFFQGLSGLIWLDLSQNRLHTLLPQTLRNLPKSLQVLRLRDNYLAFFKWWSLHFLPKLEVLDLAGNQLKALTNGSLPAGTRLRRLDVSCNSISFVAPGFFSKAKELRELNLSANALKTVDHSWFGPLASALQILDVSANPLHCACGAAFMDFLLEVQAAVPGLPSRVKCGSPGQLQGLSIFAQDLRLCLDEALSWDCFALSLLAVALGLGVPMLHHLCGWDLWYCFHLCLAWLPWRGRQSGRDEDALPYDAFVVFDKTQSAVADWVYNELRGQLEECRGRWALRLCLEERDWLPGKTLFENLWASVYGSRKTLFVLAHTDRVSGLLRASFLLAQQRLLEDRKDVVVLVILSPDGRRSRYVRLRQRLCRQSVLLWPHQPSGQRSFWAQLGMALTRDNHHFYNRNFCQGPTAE
Kind of series: Inhibition of TLR9 in human monocytes assessed as reduction in CpG-ODN-induced IL8 production. Format: cell-based.

A short description of series [7]: Terminal half life in Sprague-Dawley rat assessed as 2-((4-(Benzo[d]thiazol-5-ylamino)-6-(tert-butylsulfonyl)quinazolin-7-yl)oxy)ethanol level at 2 mg/kg, po or 1.1 mg/kg, iv by LC/MS/MS analysis. It counts as ADME, organism-based. The conditions noted are these: in vivo.
Series [8] can be described thus: Volume of distribution at steady state in Beagle dog assessed as 2-((4-(Benzo[d]thiazol-5-ylamino)-6-(tert-butylsulfonyl)quinazolin-7-yl)oxy)ethanol level at 2 mg/kg, po or 0.9 mg/kg, iv by LC/MS/MS analysis. It counts as ADME, organism-based, Canis lupus familiaris. The conditions noted are these: in vivo.
A short description of series [9]: Terminal half life in Beagle dog assessed as 2-((4-(Benzo[d]thiazol-5-ylamino)-6-(tert-butylsulfonyl)quinazolin-7-yl)oxy)ethanol level at 2 mg/kg, po or 0.9 mg/kg, iv by LC/MS/MS analysis. Format: ADME, organism-based, Canis lupus familiaris. The conditions noted are these: in vivo.
The nature of series [10]: Prodrug conversion in Han Wistar rat brain assessed as 2-((4-(Benzo[d]thiazol-5-ylamino)-6-(tert-butylsulfonyl)quinazolin-7-yl)oxy)ethanol formation at 2 mg/kg, iv administered as infusion for 4 hrs. Format: ADME, organism-based. The following applies: in vivo.
Series [11] is described as follows: Drug uptake in Han Wistar rat skin at 2 mg/kg, iv administered as infusion for 4 hrs. It counts as ADME, organism-based, Zone of skin. The conditions noted are these: in vivo.
A short description of series [12]: Prodrug conversion in rat hepatocytes assessed as hydrogenation at 20 uM measured after 4 hrs. Format: ADME, cell-based, Hepatocyte.
A short description of series [13]: Prodrug conversion in minipig hepatocytes assessed as 2-(4-(benzo[d]thiazol-5-ylamino)-6-(tert-butylsulfonyl)-1,2,3,4-tetrahydroquinazolin-7-yloxy)ethanol formation at 20 uM measured after 4 hrs. The following applies: pig. It counts as ADME, cell-based, Sus scrofa, Hepatocyte.
Series [14] is described as follows: Toxicity in Gottingen minipig during 6 week study. Also noted: species or system Sus scrofa. The conditions noted are these: pig, in vivo, 1008 h.

On to `CC(C)(C)S(=O)(=O)c1cc2c(Nc3ccc4scnc4c3)ncnc2cc1OCCO`, for which, in series [1], the inhibition (commonly the percentage by which the read-out fell short of the control) was in the range of 70 to 90%. Moreover, the bioavailability – broadly, the share of a dose that reaches the circulation, judged against a reference dose that is usually intravenous – in series [2] is 39%. In series [3], the Vd is 2.6 L/kg. Further, in [4], the half-life is 5.1 h. Moreover, the concentration in series [5] peaked (Cmax) at 4900 ng/mL. For the same compound, the half-maximal inhibitory concentration (IC50) (in general, the concentration that gives 50% inhibition) in series [6] is over 10 µM.
With `CC(C)(C)S(=O)(=O)c1cc2c(Nc3ccc4scnc4c3)ncnc2cc1OCCOP(=O)(O)O.[CaH2]`, the “beta t1/2” value was 2.4 h in series [7] and 2.9 h in [9]. The Vdss in [8] was found to be 2 L/kg. For the same compound, the Drug metabolism result in [10], in [12] and in series [13] was “Metabolite_Detected” each time. Further, in [11], the Drug uptake entry was “Not Active”. Besides, the Activity entry in [14] is recorded as “Non-Toxic”.
